# Measured values published in the supplement of paper PMC10307832.
# Compound: c1ccc2c(CCNc3ccc(Nc4ccncc4)cc3)c[nH]c2c1 [Serdemetan] + N=C(N)NC(=N)NCCc1ccccc1 [Phenformin] (partner 250 µM)
# Experiment: relative viability (nuclei count vs DMSO), 5 days (fraction); higher = more cells survive
# Details: first compound 0.04 µM
# How it was run: (§1)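 For relative viability, nuclei counts in treated wells were divided by those in vehicle wells. Lung cancer cell lines had been pin-tool dosed in 1536-well plates the day after seeding and cultured for 5 days, then fixed and stained in one step (final 0.05% Triton X-100, 1% formaldehyde, 1 ug/ml Hoechst) and imaged at 4×. Doses were one drug alone or a fixed anchor-drug dose plus five library-drug doses (not always all listed) in √10 steps, and values are duplicate-plate medians.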
row,Cell Line,relative viability
1,NCI-H522,0.669
2,NCI-H1623,0.618
3,NCI-H727,0.592
4,NCI-H1650,0.424
5,NCI-H1993,0.516
6,SW 1573,0.36
7,NCI-H838,0.564
8,LCLC-103H,0.336
9,NCI-H520,0.513
10,NCI-H2126,0.555
11,EMC-BAC-2,0.527
12,NCI-H2085,0.778
13,HCC-366,0.665
14,NCI-H1666,0.55
15,NCI-H596,0.812
16,LK-2,0.318
17,NCI-H2087,0.446

row,Cell Line,relative viability
1,NCI-H2342,0.597
2,SK-MES-1,0.634
3,H3255,0.348
4,COR-L23,0.448
5,COR-L 105,0.507
6,LOU-NH91,0.699
7,ChaGo-K-1,0.48
8,NCI-H2170,0.374
9,NCI-H2405,0.317
10,HOP-62,0.718
11,HCC-44,0.21
12,A549,0.0903
13,SW 900,0.551
14,LU99A,0.887
15,BEN,0.283
16,HARA,0.466
17,NCI-H1563,0.689

# Same assay, conditions: first compound 0.1265 µM
row,Cell Line,relative viability
1,NCI-H522,0.669
2,NCI-H1623,0.617
3,NCI-H727,0.558
4,NCI-H1650,0.462
5,NCI-H1993,0.539
6,SW 1573,0.334
7,NCI-H838,0.551
8,LCLC-103H,0.352
9,NCI-H520,0.657
10,NCI-H2126,0.557
11,EMC-BAC-2,0.543
12,NCI-H2085,0.762
13,HCC-366,0.627
14,NCI-H1666,0.557
15,NCI-H596,0.692
16,LK-2,0.64
17,NCI-H2087,0.47

row,Cell Line,relative viability
1,NCI-H2342,0.538
2,SK-MES-1,0.646
3,H3255,0.387
4,COR-L23,0.468
5,COR-L 105,0.418
6,LOU-NH91,0.733
7,ChaGo-K-1,0.484
8,NCI-H2170,0.354
9,NCI-H2405,0.406
10,HOP-62,0.63
11,HCC-44,0.236
12,A549,0.163
13,SW 900,0.487
14,LU99A,0.891
15,BEN,0.252
16,HARA,0.457
17,NCI-H1563,0.591

# Same assay, conditions: first compound 0.4 µM
row,Cell Line,relative viability
1,NCI-H522,0.67
2,NCI-H1623,0.37
3,NCI-H727,0.642
4,NCI-H1650,0.268
5,NCI-H1993,0.596
6,SW 1573,0.289
7,NCI-H838,0.544
8,LCLC-103H,0.343
9,NCI-H520,0.596
10,NCI-H2126,0.535
11,EMC-BAC-2,0.514
12,NCI-H2085,0.634
13,HCC-366,0.547
14,NCI-H1666,0.535
15,NCI-H596,0.735
16,LK-2,0.423
17,NCI-H2087,0.455

row,Cell Line,relative viability
1,NCI-H2342,0.628
2,SK-MES-1,0.605
3,H3255,0.358
4,COR-L23,0.427
5,COR-L 105,0.443
6,LOU-NH91,0.478
7,ChaGo-K-1,0.458
8,NCI-H2170,0.383
9,NCI-H2405,0.366
10,HOP-62,0.721
11,HCC-44,0.21
12,A549,0.209
13,SW 900,0.674
14,LU99A,0.763
15,BEN,0.271
16,HARA,0.499
17,NCI-H1563,0.567

# Same assay, conditions: first compound 1.265 µM
row,Cell Line,relative viability
1,NCI-H1623,0.476
2,NCI-H727,0.288
3,NCI-H1650,0.391
4,NCI-H1993,0.454
5,SW 1573,0.211
6,NCI-H838,0.427
7,LCLC-103H,0.349
8,NCI-H2126,0.512
9,EMC-BAC-2,0.382
10,NCI-H2085,0.571
11,HCC-366,0.0583
12,NCI-H1666,0.529
13,NCI-H596,0.63
14,LK-2,0.215
15,NCI-H2087,0.267
16,NCI-H2342,0.537

row,Cell Line,relative viability
1,SK-MES-1,0.576
2,H3255,0.351
3,COR-L23,0.414
4,COR-L 105,0.492
5,LOU-NH91,0.669
6,ChaGo-K-1,0.216
7,NCI-H2170,0.35
8,NCI-H2405,0.344
9,HOP-62,0.548
10,HCC-44,0.136
11,A549,0.0895
12,SW 900,0.295
13,LU99A,0.417
14,HARA,0.257
15,NCI-H1563,0.586

# Same assay, conditions: first compound 4 µM
row,Cell Line,relative viability
1,NCI-H522,0.679
2,NCI-H1623,0.739
3,NCI-H727,0.418
4,NCI-H1650,0.285
5,NCI-H1993,0.532
6,SW 1573,0.245
7,NCI-H838,0.641
8,LCLC-103H,0.322
9,NCI-H520,0.38
10,NCI-H2126,0.527
11,EMC-BAC-2,0.494
12,NCI-H2085,0.424
13,HCC-366,0.0869
14,NCI-H1666,0.412
15,NCI-H596,0.438
16,LK-2,0.335
17,NCI-H2087,0.253

row,Cell Line,relative viability
1,NCI-H2342,0.393
2,SK-MES-1,0.456
3,H3255,0.397
4,COR-L23,0.42
5,COR-L 105,0.431
6,LOU-NH91,0.665
7,ChaGo-K-1,0.25
8,NCI-H2170,0.336
9,NCI-H2405,0.381
10,HOP-62,0.583
11,HCC-44,0.213
12,A549,0.0987
13,SW 900,0.365
14,LU99A,0.354
15,BEN,0.267
16,HARA,0.304
17,NCI-H1563,0.589

# Compound: C1CC(C2=C(C1)C3=C(N2)C=CC(=C3)Cl)C(=O)N [Selisistat] + CC(=O)c1c(C)c2cnc(Nc3ccc(N4CCNCC4)cn3)nc2n(C2CCCC2)c1=O [Palbociclib] (partner 0.5 µM)
# Experiment: as above
# Details: first compound 0.4 µM
# How it was run: as §1
row,Cell Line,relative viability
1,NCI-H522,1
2,NCI-H727,0.738
3,NCI-H1650,0.362
4,NCI-H1993,0.703
5,SW 1573,0.353
6,NCI-H838,0.208
7,LCLC-103H,0.3
8,NCI-H520,0.224
9,NCI-H2126,0.377
10,EMC-BAC-2,0.523
11,NCI-H2085,0.486
12,HCC-366,0.414
13,NCI-H1666,0.658
14,LK-2,0.797
15,NCI-H2087,0.224
16,NCI-H2342,0.554

row,Cell Line,relative viability
1,SK-MES-1,0.34
2,H3255,0.348
3,COR-L23,0.372
4,COR-L 105,0.427
5,LOU-NH91,0.594
6,ChaGo-K-1,0.91
7,NCI-H2170,0.436
8,NCI-H2405,0.534
9,HOP-62,0.43
10,HCC-44,1.05
11,SW 900,0.549
12,LU99A,0.459
13,BEN,0.467
14,HARA,0.295
15,NCI-H1648,0.281

# Same assay, conditions: first compound 1.265 µM
row,Cell Line,relative viability
1,NCI-H522,0.969
2,NCI-H727,0.613
3,NCI-H1650,0.301
4,NCI-H1993,0.67
5,SW 1573,0.366
6,NCI-H838,0.223
7,LCLC-103H,0.509
8,NCI-H520,0.208
9,NCI-H2126,0.369
10,EMC-BAC-2,0.525
11,NCI-H2085,0.476
12,HCC-366,0.447
13,NCI-H1666,0.613
14,LK-2,0.686
15,NCI-H2087,0.278
16,NCI-H2342,0.753

row,Cell Line,relative viability
1,SK-MES-1,0.347
2,H3255,0.295
3,COR-L23,0.296
4,COR-L 105,0.378
5,LOU-NH91,0.526
6,ChaGo-K-1,0.918
7,NCI-H2170,0.396
8,NCI-H2405,0.536
9,HOP-62,0.43
10,HCC-44,0.975
11,SW 900,0.517
12,LU99A,0.367
13,BEN,0.502
14,HARA,0.242
15,NCI-H1648,0.268

# Same assay, conditions: first compound 4 µM
row,Cell Line,relative viability
1,NCI-H522,0.714
2,NCI-H727,0.442
3,NCI-H1650,0.357
4,NCI-H838,0.185
5,LCLC-103H,0.452
6,NCI-H520,0.198
7,NCI-H2126,0.336
8,EMC-BAC-2,0.586
9,NCI-H2085,0.433
10,HCC-366,0.37
11,NCI-H1666,0.642
12,LK-2,0.766
13,NCI-H2342,0.46
14,SK-MES-1,0.309
15,H3255,0.33
16,COR-L23,0.332
17,COR-L 105,0.397
18,LOU-NH91,0.585
19,ChaGo-K-1,0.832
20,NCI-H2170,0.413
21,HOP-62,0.508
22,HCC-44,1.07
23,SW 900,0.502
24,LU99A,0.44
25,BEN,0.486
26,HARA,0.241

# Same assay, conditions: first compound 12.65 µM
row,Cell Line,relative viability
1,NCI-H522,0.921
2,NCI-H727,0.601
3,NCI-H1650,0.364
4,NCI-H1993,0.623
5,SW 1573,0.371
6,NCI-H838,0.242
7,LCLC-103H,0.435
8,NCI-H520,0.274
9,NCI-H2126,0.362
10,EMC-BAC-2,0.282
11,NCI-H2085,0.522
12,HCC-366,0.355
13,NCI-H1666,0.659
14,LK-2,0.694
15,NCI-H2087,0.261
16,NCI-H2342,0.538

row,Cell Line,relative viability
1,SK-MES-1,0.314
2,H3255,0.303
3,COR-L23,0.305
4,COR-L 105,0.419
5,LOU-NH91,0.519
6,ChaGo-K-1,0.816
7,NCI-H2170,0.458
8,NCI-H2405,0.578
9,HOP-62,0.424
10,HCC-44,0.994
11,SW 900,0.553
12,LU99A,0.445
13,BEN,0.448
14,HARA,0.275
15,NCI-H1648,0.296

# Same assay, conditions: first compound 40 µM
row,Cell Line,relative viability
1,NCI-H522,1.02
2,NCI-H727,0.637
3,NCI-H1650,0.334
4,NCI-H1993,0.676
5,SW 1573,0.388
6,NCI-H838,0.206
7,LCLC-103H,0.558
8,NCI-H520,0.236
9,NCI-H2126,0.37
10,EMC-BAC-2,0.319
11,NCI-H2085,0.496
12,HCC-366,0.377
13,NCI-H1666,0.611
14,LK-2,0.566
15,NCI-H2087,0.287
16,NCI-H2342,0.611

row,Cell Line,relative viability
1,SK-MES-1,0.378
2,H3255,0.32
3,COR-L23,0.296
4,COR-L 105,0.437
5,LOU-NH91,0.552
6,ChaGo-K-1,0.889
7,NCI-H2170,0.475
8,NCI-H2405,0.502
9,HOP-62,0.619
10,HCC-44,1.06
11,SW 900,0.511
12,LU99A,0.399
13,BEN,0.459
14,HARA,0.251
15,NCI-H1648,0.299

# Compound: C1CC(C2=C(C1)C3=C(N2)C=CC(=C3)Cl)C(=O)N [Selisistat] + N=C(N)NC(=N)NCCc1ccccc1 [Phenformin] (partner 250 µM)
# Experiment: as above
# Details: first compound 0.4 µM
# How it was run: as §1
row,Cell Line,relative viability
1,NCI-H522,0.695
2,NCI-H1623,0.557
3,NCI-H727,0.564
4,NCI-H1650,0.375
5,NCI-H1993,0.518
6,SW 1573,0.411
